≈ marks a conversion by molar mass, not a printed value.
Experiments:
[1] = system: Salmonella enterica isolated from layer feed; test: Preliminary in vitro feed assay, Salmonella count in contaminated feed over 21 days; type: cell-based; details: 15 kg/ton; pre-treatment Day 0
Method: Preparation of the treatment. Perpropionic acid, peracetic acid, mixture of peroctanoic acid and perdecanoic acid (PC8/PC10) and Sal CURB products were used without any further dilution or mixing. The peroxy mix was prepared by mixing peracetic and perpropionic acid in 1:1 weight ratio. Briefly, 1.0 g of peroxy mix was prepared by weighing 0.5 g of peracetic acid into 0.5 g of perpropionic acid. The mixture was mixed well prior to usage. Similar procedure was followed in the preparation of 3% sulphuric acid (where […] of water) and peroxy mix with ester (where 0.9 g of peroxy mix (prepared with peracetic and propionic acid) was mixed with 0.1 g of propylene glycol propionate esters). […] Briefly, 1 mL of 75% phosphoric acid was added to 10 mL of Pro-Oxine solution and mixed well. The mixture is covered and let to stand for 10 mins prior to usage.
Preparation of stock feed inoculum. The researchers prepared contaminated feed from known methods, where Salmonella enterica isolated from layer feed was revived from the glycerol stock by plating a loopful of culture onto the TSAYE (i.e., tryptone soya agar supplemented with 0.6% yeast extract (CM0131B; Oxoid) prepared as per recommended) and incubate for 18-24 hours at 37° C. Following which, the colonies were collected aseptically with saline solution (i.e., 0.9% sodium chloride (V800372; Sigma-Aldrich) prepared in deionized water), yielding approximately 5 mL of biomass suspension. The biomass suspension was diluted accordingly to meet the contamination level required for the stock inoculum. No dilution was required for high contamination level of ca. 10^7 cfu/g whereas biomass suspension was diluted 1000 times to achieve lower contamination level of ca. 10^4 cfu/g in the stock inoculum. The stock feed inoculum was prepared by adding the biomass suspension (5 mL) into 100 g of sterile feed (made up with 7:3 ground corn and soybean, autoclaved at 121° C. for one hour and dried for 24 hours at 65° C.) with a syringe and needle, and homogenously mixed after. The stock feed inoculum was stored at 25° C. for a week. Salmonella count of the stock inoculum was determined using conventional plating method with XLD agar (i.e., Xylose lysine deoxycholate (CM0469B; Oxoid)) and BPW (i.e., buffered peptone water (CM0509B; Oxoid)) prior to usage. Briefly, three grams of stock feed inoculum was weighed into a 50 mL conical tube, diluted with 27 mL of BPW, homogenously mixed and left to stand for 30 minutes. The feed suspension was then serial diluted to the appropriate dilutions. An aliquot of 0.1 mL of the feed suspension was plated onto the agar at each dilution and incubated at 37° C. for 18-24 hours prior to enumeration. Plating was carried out in triplicates. Blank stock feed was prepared by adding 5 mL of saline into 100 g of sterile feed.
Preparation of the feed inoculum. The stock feed inoculum was diluted approximately 100 times with sterile feed where three grams of stock inoculum was added into 307 g of sterile feed and kept at 37° C. for 24 hours. The Salmonella count of the feed was determined prior to treatment. Briefly, 90 mL of BPW was added into 10 g of feed sample in a sterile bag (10^−1 dilution). The mixture was homogenously mixed with a stomacher at medium speed for three minutes and left to stand for 30 minutes. The feed supernatant was serial diluted to appropriate dilutions for plating. The plates were incubated at 37° C. for 18-24 hours prior to counting. If low Salmonella count was expected, the sample size was increased to 1 mL by plating 300, 300 and 400 uL onto three plates in triplicates for […] detection limit (10 cfu/g). Blank feed was prepared by adding three grams of blank stock feed into 307 g of sterile feed. In addition, an extra contaminated feed was prepared as a control.
Treatment of contaminated feed. […]

[2] = system: Escherichia coli ATCC 25922; test: Minimum inhibitory concentration (MIC), broth microdilution; type: cell-based
Method: Materials and Methods. The assay was conducted to determine the minimum inhibitory concentration (MIC) of peroxy-acids against Escherichia coli ATCC 25922. E. coli was purchased from American Type Culture Collection (ATCC). The strain was stored at −80° C. in glycerol. Prior to usage, E. coli was revived by streaking a loopful of culture onto TSAYE (i.e., tryptone soya agar yeast extract (CM0131 and LP0021; Oxoid) prepared as per recommended by Oxoid) with overnight incubation at 37° C. An overnight culture of E. coli was diluted in TSBYE (i.e, tryptone soya broth yeast extract (CM0129; Oxoid) prepared as per recommended by Oxoid) to obtain a cell suspension of ca. 10^5 CFU/mL. Subsequently, 100 μL of the diluted culture was added to 100 μL of the test solutions at the needed concentrations into a microtiter plate (92096; TPP Techno Plastic Products AG). Peroxy-acids were tested at an active concentration of 25-1600 μg/mL. Subsequently, the inoculated plate was incubated at 37° C. up to 48 hours with the bacterial cell density recorded at optical density (OD) 600 nm at 24 hours interval using a microplate reader (Varioskan LUX; Thermo Fisher).

For `CCC(=O)OO` [Perpropionic acid, perpropionic acid], the Salmonella count [1] was 5.62 log cfu/g, the “Minimum inhibitory concentration (μg/mL) against E. coli” value ([2]; no increment in OD over 48 hours, 37° C.) was 500 µg/mL (≈ 5.55 mM) and the MIC ([2]; preliminary results) was 500 ppm.
